Laboratory results taken from patent US20150299188A1, “HETEROCYCLIC COMPOUND” (priority 2012, published 2015).

System: FLAP (5-lipoxygenase activating protein)
Assay: In vitro binding test: displacement of [3H]-7-chloro-3-(5-((3-fluoropyridin-2-yl)methoxy)-2-methylphenyl)-3,4-dihydroquinazolin-2(1H)-one from Sf9 microsome fractions
Set-up: species or system human and mouse
Settings: Sf9 microsome fractions expressing FLAP; 100% = radioligand binding with 10 μM sodium 3-(3-(tert-butylsulfanyl)-1-(4-chlorobenzyl)-5-isopropyl-1H-indol-2-yl)-2,2-dimethylpropanoate, 0% = DMSO; test compound concentration not given
Method in brief: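 Sf9 microsomes expressing human or mouse FLAP (2 μg/mL) preincubated with compound 10 min at room temperature, then 120 nM tritiated quinazolinone ligand added for 60 min; buffer 100 mM Tris-HCl pH 7.5 with NaCl, EDTA, DTT, glycerol, Tween20. Bound ligand filtered and counted by scintillation; 10 μM indole propanoate defines 100% inhibition, DMSO 0%.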

In the case of Cc1ccc(OCc2ncccn2)cc1N1Cc2c(Cl)cccc2NC1=O [Example 274, 5-chloro-3-(2-methyl-5-(pyrimidin-2-ylmethoxy)phenyl)-3,4-dihydroquinazolin-2(1H)-one], the “inhibitory rate (%)” value is reported as 106%.
For N#Cc1ncc(Cl)c2c1NC(=O)N(c1cc3c(cc1Cl)CCC(c1ncccc1F)O3)C2 (centres unmarked) [Example 157, 5-chloro-3-(6-chloro-2-(3-fluoropyridin-2-yl)-3,4-dihydro-2H-chromen-7-yl)-2-oxo-1,2,3,4-tetrahydropyrido[3,4-d]pyrimidine-8-carbonitrile], the “inhibitory rate (%)” value was 104%.
In the case of CC(C)(O)c1cc2c(c(C3CC3)n1)CN(c1cc3c(cc1Cl)CCC(c1ncccc1F)O3)C(=O)N2 (centres unmarked) [Example 75, 3-(6-chloro-2-(3-fluoropyridin-2-yl)-3,4-dihydro-2H-chromen-7-yl)-5-cyclopropyl-7-(2-hydroxypropan-2-yl)-3,4-dihydropyrido[4,3-d]pyrimidin-2(1H)-one], the “inhibitory rate (%)” value is reported as 103%.
In the case of Cc1cc2c(cc1N1Cc3c(ccnc3C(C)C)NC1=O)OC(c1ncccc1F)CC2 (centres unmarked) [Example 67, 3-(2-(3-fluoropyridin-2-yl)-6-methyl-3,4-dihydro-2H-chromen-7-yl)-5-isopropyl-3,4-dihydropyrido[4,3-d]pyrimidin-2(1H)-one], the “inhibitory rate (%)” value is reported as 104%.
In the case of COc1cc2c(c(C3CC3)n1)CN(c1cc3c(cc1C)CCC(c1ncccc1F)O3)C(=O)N2 (centres unmarked) [Example 122, 5-cyclopropyl-3-(2-(3-fluoropyridin-2-yl)-6-methyl-3,4-dihydro-2H-chromen-7-yl)-7-methoxy-3,4-dihydropyrido[4,3-d]pyrimidin-2(1H)-one], the “inhibitory rate (%)” value is reported as 106%.
With Cc1ccc(OCc2ncccc2F)cc1-n1c(=O)[nH]c2cc(C(=O)NC3CC3)ccc2c1=O [Example 363, N-cyclopropyl-3-(5-((3-fluoropyridin-2-yl)methoxy)-2-methylphenyl)-2,4-dioxo-1,2,3,4-tetrahydroquinazoline-7-carboxamide] the “inhibitory rate (%)” value was 97%.
In the case of Cc1ccc(OCc2ncccc2F)cc1-n1c(=O)[nH]c2ccccc2c1=O [Example 337, 3-(5-((3-fluoropyridin-2-yl)methoxy)-2-methylphenyl)quinazoline-2,4(1H,3H)-dione], the “inhibitory rate (%)” value is reported as 104%.
With O=C1Nc2cc(-c3ccn[nH]3)nc(C3CC3)c2CN1c1cc2c(cc1Cl)CCC(c1ncccc1F)O2 (centres unmarked) [Example 115, 3-(6-chloro-2-(3-fluoropyridin-2-yl)-3,4-dihydro-2H-chromen-7-yl)-5-cyclopropyl-7-(1H-pyrazol-5-yl)-3,4-dihydropyrido[4,3-d]pyrimidin-2(1H)-one] the “inhibitory rate (%)” value was 106%.
With Cc1ccc(OCc2ncccc2F)cc1N1Cc2ccc(C(=O)N3CCOCC3)cc2NC1=O [Example 288, 3-(5-((3-fluoropyridin-2-yl)methoxy)-2-methylphenyl)-7-(morpholin-4-ylcarbonyl)-3,4-dihydroquinazolin-2(1H)-one] the “inhibitory rate (%)” value was 104%.
In the case of O=C(NC1CC1)c1cc2c(c(C3CC3)n1)CN(c1cc3c(cc1Cl)CCC(c1ncccc1F)O3)C(=O)N2 (centres unmarked) [Example 76, 3-(6-chloro-2-(3-fluoropyridin-2-yl)-3,4-dihydro-2H-chromen-7-yl)-N,5-dicyclopropyl-2-oxo-1,2,3,4-tetrahydropyrido[4,3-d]pyrimidine-7-carboxamide], the “inhibitory rate (%)” value is reported as 105%.
In the case of COC(=O)c1ccc2c(c1)NC(=O)N(c1cc(OCc3csc(C)n3)ccc1C)C2 [Example 211, methyl 3-(2-methyl-5-((2-methyl-1,3-thiazol-4-yl)methoxy)phenyl)-2-oxo-1,2,3,4-tetrahydroquinazoline-7-carboxylate], the “inhibitory rate (%)” value is reported as 86%.
In the case of Cc1cc2c(cc1N1Cc3c(F)cnc(-c4cnn(C)c4)c3NC1=O)OC(c1ncccc1F)CC2 (centres unmarked) [Example 167, 5-fluoro-3-(2-(3-fluoropyridin-2-yl)-6-methyl-3,4-dihydro-2H-chromen-7-yl)-8-(1-methyl-1H-pyrazol-4-yl)-3,4-dihydropyrido[3,4-d]pyrimidin-2(1H)-one], the “inhibitory rate (%)” value is reported as 95%.
For COCCN1C(=O)N(c2cc(OCc3ncccc3F)ccc2C)Cc2c(Cl)cccc21 [Example 283, 5-chloro-3-(5-((3-fluoropyridin-2-yl)methoxy)-2-methylphenyl)-1-(2-methoxyethyl)-3,4-dihydroquinazolin-2(1H)-one], the “inhibitory rate (%)” value was 100%.
For Cc1ccc(OCc2ncccc2F)cc1-n1c(=O)[nH]c2cccc(C(F)(F)F)c2c1=O [Example 370, 3-(5-((3-fluoropyridin-2-yl)methoxy)-2-methylphenyl)-5-(trifluoromethyl)quinazoline-2,4(1H,3H)-dione], the “inhibitory rate (%)” value was 97%.
For COC(=O)c1ccc2c(c1)NC(=O)N(c1cc(OCc3c(F)cccc3F)ccc1C(=O)OC)C2 [Example 176, methyl 3-(5-((2,6-difluorobenzyl)oxy)-2-(methoxycarbonyl)phenyl)-2-oxo-1,2,3,4-tetrahydroquinazoline-7-carboxylate], the “inhibitory rate (%)” value was 95%.
For Cc1ncc(Cl)c2c1NC(=O)N(c1cc3c(cc1Cl)CC[C@@H](c1ncccc1F)O3)C2 [Example 9, 5-chloro-3-((2S)-6-chloro-2-(3-fluoropyridin-2-yl)-3,4-dihydro-2H-chromen-7-yl)-8-methyl-3,4-dihydropyrido[3,4-d]pyrimidin-2(1H)-one], the “inhibitory rate (%)” value was 104%.
For COC(=O)c1cc2c(c(C3CC3)n1)CN(c1cc3c(cc1Cl)CCC(c1ncccc1F)O3)C(=O)N2 (centres unmarked) [Example 70, methyl 3-(6-chloro-2-(3-fluoropyridin-2-yl)-3,4-dihydro-2H-chromen-7-yl)-5-cyclopropyl-2-oxo-1,2,3,4-tetrahydropyrido[4,3-d]pyrimidine-7-carboxylate], the “inhibitory rate (%)” value was 101%.
O=C1Nc2c(C3CC3)ncc(F)c2CN1c1cc2c(cc1Cl)CCC(c1ncccc1F)O2 (centres unmarked) [Example 166, 3-(6-chloro-2-(3-fluoropyridin-2-yl)-3,4-dihydro-2H-chromen-7-yl)-8-cyclopropyl-5-fluoro-3,4-dihydropyrido[3,4-d]pyrimidin-2(1H)-one] was tested, and the “inhibitory rate (%)” value was 106%.
CCOC(=O)c1nccc2c1CN(c1cc3c(cc1C)CCC(c1ncccc1F)O3)C(=O)N2 (centres unmarked) [Example 30, ethyl 3-(2-(3-fluoropyridin-2-yl)-6-methyl-3,4-dihydro-2H-chromen-7-yl)-2-oxo-1,2,3,4-tetrahydropyrido[4,3-d]pyrimidine-5-carboxylate] was tested, and the “inhibitory rate (%)” value was 105%.
For Cc1ccc(OCc2ncccc2F)cc1N1Cc2ccc(C(=O)Nc3ccccc3)cc2NC1=O [Example 273, 3-(5-((3-fluoropyridin-2-yl)methoxy)-2-methylphenyl)-2-oxo-N-phenyl-1,2,3,4-tetrahydroquinazoline-7-carboxamide], the “inhibitory rate (%)” value was 100%.
For Cc1ccc(OCc2ncccc2F)cc1N1Cc2nn(C)cc2NC1=O [Example 250, 6-(5-((3-fluoropyridin-2-yl)methoxy)-2-methylphenyl)-2-methyl-2,4,6,7-tetrahydro-5H-pyrazolo[4,3-d]pyrimidin-5-one], the “inhibitory rate (%)” value was 70%.
For Cc1ccc(OCc2cccs2)cc1N1Cc2ccccc2NC1=O [Example 175, 3-(2-methyl-5-(2-thienylmethoxyl)phenyl)-3,4-dihydroquinazolin-2(1H)-one], the “inhibitory rate (%)” value was 51%.
Cc1ccc(OCc2ncccc2F)cc1N1Cc2c(ccnc2Cl)NC1=O [Example 279, 5-chloro-3-(5-((3-fluoropyridin-2-yl)methoxy)-2-methylphenyl)-3,4-dihydropyrido[4,3-d]pyrimidin-2(1H)-one] was tested, and the “inhibitory rate (%)” value was 103%.
